From paper PMC11451537, “P2X7 receptors exhibit at least three modes of allosteric antagonism” (Science Advances, 2024)

Assays:
Type in all cases: cell-based
[1] = biological target: T1, hP2X3 (Homo sapiens, UniProt P56373); experiment: TEVC inhibition dose-response (IC50), hP2X3 in Xenopus laevis oocytes; conditions: 1 μM ATP, mean ± SD, triplicate
T1 construct: The hP2X1-WT, hP2X2-WT, hP2X3-WT, hP2X4-WT, and hP2X7-WT constructs used for electrophysiology are similarly unmodified full-length, wild-type receptor constructs; expressed in transfected cells; host or cells: Xenopus laevis oocytes injected with mRNA made from pcDNA3.1x
T1 sequence (P56373 1-397): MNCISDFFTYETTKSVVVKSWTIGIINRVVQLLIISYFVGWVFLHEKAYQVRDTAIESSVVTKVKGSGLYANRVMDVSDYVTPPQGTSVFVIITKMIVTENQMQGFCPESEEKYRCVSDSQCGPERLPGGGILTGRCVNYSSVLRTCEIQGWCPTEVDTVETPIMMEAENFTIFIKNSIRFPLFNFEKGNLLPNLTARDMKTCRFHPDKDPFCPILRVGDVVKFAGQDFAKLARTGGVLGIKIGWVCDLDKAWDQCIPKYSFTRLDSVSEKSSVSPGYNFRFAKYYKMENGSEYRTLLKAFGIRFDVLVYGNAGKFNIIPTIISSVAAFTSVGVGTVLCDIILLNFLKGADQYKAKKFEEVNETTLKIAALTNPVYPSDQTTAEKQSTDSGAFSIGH
Description: (§1) To evaluate the inhibitory response of an antagonist for a dilution series, an initial excitatory signal was evoked at a subtype-specific concentration of ATP. Next, the antagonist was applied at a test concentration for 60 s and then coapplied at the same test concentration of the antagonist with the identical subtype-specific concentration of ATP. The antagonized signal was then normalized against the preceding excitatory signal evoked by ATP for each individual oocyte tested. The pre- and post-antagonist signals were evoked by 10 μM ATP for hP2X1, 10 μM ATP for hP2X2, 1 μM ATP for hP2X3, 50 μM ATP for hP2X4, and 100 μM ATP for P2X7. For the K297V mutation in rP2X7, pre- and post-antagonist signals were evoked by 300 μM ATP. Each dataset was then fit to a nonlinear regression named “[inhibitor] vs. response – Variable slope (four parameters)” in GraphPad Prism 9 to produce a sigmoidal curve and afford an IC50 value. Each singular condition was used to generate an average which is reported plus or minus its SD between three discrete trials.

[2] = biological target: T2, hP2X7 (Homo sapiens, UniProt Q99572); experiment: TEVC recovery of current after complete inhibition (IC100), hP2X7; set-up: hP2X7-WT constructs used for electrophysiology are similarly unmodified full-length, wild-type receptor constructs; expressed in transfected cells; host or cells: Xenopus laevis oocytes injected with mRNA made from pcDNA3.1x; conditions: 120 s buffer wash, 100 μM ATP
T2 sequence (Q99572 1-595): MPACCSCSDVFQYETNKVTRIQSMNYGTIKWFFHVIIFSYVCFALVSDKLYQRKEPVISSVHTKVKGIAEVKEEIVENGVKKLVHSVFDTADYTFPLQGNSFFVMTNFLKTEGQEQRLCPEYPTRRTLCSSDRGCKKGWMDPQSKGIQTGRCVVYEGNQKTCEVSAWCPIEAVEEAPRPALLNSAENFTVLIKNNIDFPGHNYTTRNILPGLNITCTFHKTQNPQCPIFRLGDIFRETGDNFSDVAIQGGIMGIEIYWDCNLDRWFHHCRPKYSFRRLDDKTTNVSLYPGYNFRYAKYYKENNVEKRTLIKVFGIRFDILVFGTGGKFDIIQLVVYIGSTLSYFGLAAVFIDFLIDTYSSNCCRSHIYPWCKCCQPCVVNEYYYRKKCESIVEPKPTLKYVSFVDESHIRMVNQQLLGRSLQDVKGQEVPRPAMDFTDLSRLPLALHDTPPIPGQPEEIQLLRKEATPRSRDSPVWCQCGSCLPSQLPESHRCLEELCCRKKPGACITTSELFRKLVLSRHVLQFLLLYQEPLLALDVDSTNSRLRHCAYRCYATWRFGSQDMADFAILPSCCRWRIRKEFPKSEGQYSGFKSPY
Description: Experiments were run in triplicate.

[3] = biological target: T2, hP2X7; experiment: TEVC inhibition dose-response (IC50), hP2X7 in Xenopus laevis oocytes; set-up: hP2X4-WT, and hP2X7-WT constructs used for electrophysiology are similarly unmodified full-length, wild-type receptor constructs; expressed in transfected cells; host or cells: Xenopus laevis oocytes injected with mRNA made from pcDNA3.1x; conditions: 100 μM ATP, mean ± SD, triplicate
Description: as §1

[4] = biological target: T3, hP2X1 (Homo sapiens, UniProt P51575); experiment: TEVC inhibition dose-response (IC50), hP2X1 in Xenopus laevis oocytes; conditions: 10 μM ATP, mean ± SD, triplicate
T3 construct: The hP2X1-WT, hP2X2-WT, hP2X3-WT, hP2X4-WT, and hP2X7-WT constructs used for electrophysiology are similarly unmodified full-length, wild-type receptor constructs; expressed in transfected cells; host or cells: Xenopus laevis oocytes injected with mRNA made from pcDNA3.1x
T3 sequence (P51575 1-399): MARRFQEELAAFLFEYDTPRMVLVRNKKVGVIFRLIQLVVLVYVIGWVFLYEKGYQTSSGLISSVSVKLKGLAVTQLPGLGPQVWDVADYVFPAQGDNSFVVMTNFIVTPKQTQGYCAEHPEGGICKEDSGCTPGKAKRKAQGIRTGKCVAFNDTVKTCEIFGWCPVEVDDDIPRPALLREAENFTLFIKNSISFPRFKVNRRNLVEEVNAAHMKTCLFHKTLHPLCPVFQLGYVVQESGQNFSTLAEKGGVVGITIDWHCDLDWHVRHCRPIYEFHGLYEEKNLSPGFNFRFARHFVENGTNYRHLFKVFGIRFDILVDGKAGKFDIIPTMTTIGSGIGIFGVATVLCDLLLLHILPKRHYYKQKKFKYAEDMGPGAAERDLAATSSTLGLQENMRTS
Description: as §1

[5] = biological target: T4, hP2X4 (Homo sapiens, UniProt Q99571); experiment: TEVC inhibition dose-response (IC50), hP2X4 in Xenopus laevis oocytes; conditions: 50 μM ATP, mean ± SD, triplicate
T4 sequence (Q99571 1-388): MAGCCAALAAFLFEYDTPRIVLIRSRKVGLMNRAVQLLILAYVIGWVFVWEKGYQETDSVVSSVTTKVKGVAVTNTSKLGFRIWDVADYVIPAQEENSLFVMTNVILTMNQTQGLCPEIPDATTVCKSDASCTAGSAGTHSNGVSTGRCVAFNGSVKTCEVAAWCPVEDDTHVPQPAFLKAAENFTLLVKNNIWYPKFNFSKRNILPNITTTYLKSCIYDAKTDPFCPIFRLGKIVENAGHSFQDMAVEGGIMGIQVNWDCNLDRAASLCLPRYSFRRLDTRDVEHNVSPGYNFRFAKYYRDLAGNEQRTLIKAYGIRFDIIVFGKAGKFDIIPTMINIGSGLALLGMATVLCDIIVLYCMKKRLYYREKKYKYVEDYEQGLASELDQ
Description: as §1

For `O=S(=O)(O)c1ccc(N=C2C=CC(=C(c3ccc(Nc4ccc(S(=O)(=O)O)cc4)cc3)c3ccc(Nc4ccc(S(=O)(=O)O)cc4)cc3)C=C2)cc1` [methyl blue], the IC50 [1] was 4 ± 1 µM, the “Recovery of activation (% of baseline current)” value ([2]; hP2X7, 40-s IC100 application) was 34 ± 3% and the “Recovery of activation (% of baseline current)” value ([2]; hP2X7, 120-s IC100 application) was 17 ± 6%. For the same compound, the “Recovery of activation (% of baseline current)” value ([2]; hP2X7, 240-s IC100 application) was 2 ± 1%, the IC50 [3] was 4 ± 2 µM and the IC50 [4] was 0.4 ± 0.1 µM. It also gave an IC50 [5] of 51 ± 6 µM.
